Patent publication US8741906B2 (priority 2011, dated 2014)

Assays:
human CB2 receptors = target: T1, human CB2 receptors (Homo sapiens, UniProt P34972); test: functional cAMP assay, human CB2; type: cell-based; details: CHO cells expressing human CB2, cAMP; read-out: human CB2 EC50
T1 construct: expressed in transfected cells; host or cells: CHO cells
Description: (§1) CHO cells expressing human CB1 or CB2 receptors are seeded 17-24 hours prior to the experiment 50.000 cells per well in a black 96 well plate with flat clear bottom (Corning Costar #3904) in DMEM (Invitrogen No. 31331), 1×HT supplement, with 10% fetal calf serum and incubated at 5% CO2 and 37° C. in a humidified incubator. The growth medium was exchanged with Krebs Ringer Bicarbonate buffer with 1 mM IBMX and incubated at 30° C. for 30 min. Compounds were added to a final assay volume of 100 μl and incubated for 30 min at 30° C. Using the cAMP-Nano-TRF detection kit the assay (Roche Diagnostics) was stopped by the addition of 50 μl lysis reagent (Tris, NaCl, 1.5% Triton X100, 2.5% NP40, 10% NaN3) and 50 μl detection solutions (20 μM mAb Alexa700-cAMP 1:1, and 48 μM Ruthenium-2-AHA-cAMP) and shaken for 2 h at room temperature. The time-resolved energy transfer is measured by a TRF reader (Evotec Technologies GmbH), equipped with a ND:YAG laser as excitation source. The plate is measured twice with the excitation at 355 nm and at the emission with a delay of 100 ns and a gate of 100 ns, total exposure time 10 s at 730 (bandwidth 30 nm) or 645 nm (bandwidth 75 nm), respectively. The FRET signal is calculated as follows: FRET=T730-Alexa730-P(T645-B645) with P=Ru730-B730/Ru645-B645, where T730 is the test well measured at 730 nM, T645 is the test well measured at 645 nm, B730 and B645 are the buffer controls at 730 nm and 645 nm, respectively. cAMP content is determined from the function of a standard curve spanning from 10 μM to 0.13 nM cAMP.
(§2) EC50 values were determined using Activity Base analysis (ID Business Solution, Limited). The EC50 values for a wide range of cannabinoid agonists generated from this assay were in agreement with the values published in the scientific literature.

human CB1 receptors = target: T2, human CB1 receptors (Homo sapiens, UniProt P21554); test: functional cAMP assay, human CB1; type: cell-based; details: CHO cells expressing human CB1, cAMP; read-out: human CB1 EC50
T2 construct: expressed in transfected cells; host or cells: CHO cells
Description: as §1, §2

T1 sequence (P34972 whole entry): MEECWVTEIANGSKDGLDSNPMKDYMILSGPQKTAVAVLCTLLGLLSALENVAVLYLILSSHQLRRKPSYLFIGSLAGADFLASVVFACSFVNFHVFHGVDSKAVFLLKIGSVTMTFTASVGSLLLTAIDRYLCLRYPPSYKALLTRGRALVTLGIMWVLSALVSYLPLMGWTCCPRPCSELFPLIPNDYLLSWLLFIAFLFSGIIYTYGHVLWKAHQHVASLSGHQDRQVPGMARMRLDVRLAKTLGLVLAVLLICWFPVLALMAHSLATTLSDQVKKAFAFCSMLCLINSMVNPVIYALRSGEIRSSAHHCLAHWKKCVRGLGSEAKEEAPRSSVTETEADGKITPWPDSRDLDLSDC
T2 sequence (P21554 whole entry): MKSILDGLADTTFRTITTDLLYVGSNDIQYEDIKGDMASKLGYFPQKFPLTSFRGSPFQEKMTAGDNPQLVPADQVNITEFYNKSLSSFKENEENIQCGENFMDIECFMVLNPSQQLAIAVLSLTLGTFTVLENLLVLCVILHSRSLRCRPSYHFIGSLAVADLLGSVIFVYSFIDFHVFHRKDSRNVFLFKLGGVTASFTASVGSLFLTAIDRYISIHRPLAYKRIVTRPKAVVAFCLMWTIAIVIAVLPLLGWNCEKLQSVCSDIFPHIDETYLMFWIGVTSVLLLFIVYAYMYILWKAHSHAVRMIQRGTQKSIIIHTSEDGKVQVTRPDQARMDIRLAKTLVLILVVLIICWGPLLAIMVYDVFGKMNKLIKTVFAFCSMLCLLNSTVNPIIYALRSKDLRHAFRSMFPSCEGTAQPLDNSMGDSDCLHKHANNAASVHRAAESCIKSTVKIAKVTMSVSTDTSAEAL

SMILES	EC50 (human CB2 receptors) [nM]	EC50 (human CB1 receptors) [nM]
CC(C)(C)c1nc(N2C[C@@H](O)[C@@H](O)C2)c2nnn(Cc3ccccc3Cl)c2n1 [Example 56, (3S,4R)-1-[5-tert-Butyl-3-(2-chloro-benzyl)-3H-[1,2,3]triazolo[4,5-d]pyrimidin-7-yl]-pyrrolidine-3,4-diol]	16.5	> 10000
COc1ccc(Cn2nnc3c(N4CCOCC4)nc(C(C)(C)C)nc32)cc1 [Example 57, 5-tert-Butyl-3-(4-methoxy-benzyl)-7-morpholin-4-yl-3H-[1,2,3]triazolo[4,5-d]pyrimidine]	12.3	> 10000
CC(C)(C)c1nc(N2CCOCC2)c2nn[nH]c2n1 [Example 58]	337	> 10000
CC(C)(C)c1nc(N2CCOCC2)c2nnn(Cc3ccc(F)cc3Cl)c2n1 [Example 59, 5-tert-Butyl-3-(2-chloro-4-fluoro-benzyl)-7-morpholin-4-yl-3H-[1,2,3]triazolo[4,5-d]pyrimidine]	2.3	> 10000
COc1ccc(Cn2nnc3c(N4CCC(F)(F)C4)nc(C(C)(C)C)nc32)cc1 [Example 60, 5-tert-Butyl-7-(3,3-difluoro-pyrrolidin-1-yl)-3-(4-methoxy-benzyl)-3H-[1,2,3]triazolo[4,5-d]pyrimidine]	2.5	> 10000
CCn1nnc2c(N3CCC(F)(F)C3)nc(C(C)(C)C)nc21 [Example 61, 5-tert-butyl-7-(3,3-difluoropyrrolidin-1-yl)-3-ethyl-3H-[1,2,3]triazolo[4,5-d]pyrimidine]	13.2	> 10000
COCCn1nnc2c(N3CCC(F)(F)C3)nc(C(C)(C)C)nc21 [Example 62, 5-tert-Butyl-7-(3,3-difluoro-pyrrolidin-1-yl)-3-(2-methoxy-ethyl)-3H-[1,2,3]triazolo[4,5-d]pyrimidine]	3.3	> 10000
CC(C)(C)c1nc(N2CCC(F)(F)C2)c2nnn(CCO)c2n1 [Example 63, 2-[5-tert-Butyl-7-(3,3-difluoro-pyrrolidin-1-yl)-[1,2,3]triazolo[4,5-d]pyrimidin-3-yl]-ethanol]	18.2	> 10000
CC(C)(C)c1nc(N2CCC(F)(F)C2)c2nnn(CC3CCCCC3)c2n1 [Example 64, 5-tert-Butyl-3-cyclohexylmethyl-7-(3,3-difluoro-pyrrolidin-1-yl)-3H-[1,2,3]triazolo[4,5-d]pyrimidine]	2.3	> 10000
CC(C)(C)c1nc(N2CCC(F)(F)C2)c2nnn(Cc3cccc(Cl)c3)c2n1 [Example 65, 5-tert-Butyl-3-(3-chloro-benzyl)-7-(3,3-difluoro-pyrrolidin-1-yl)-3H-[1,2,3]triazolo[4,5-d]pyrimidine]	0.9	220
CC(C)(C)c1nc(N2CCC(F)(F)C2)c2nnn(Cc3ccc(Cl)cc3)c2n1 [Example 66, 5-tert-Butyl-3-(4-chloro-benzyl)-7-(3,3-difluoro-pyrrolidin-1-yl)-3H-[1,2,3]triazolo[4,5-d]pyrimidine]	2	> 10000
CC(C)(C)c1nc(N2CCC(F)(F)C2)c2nnn(Cc3cccc(Cl)c3Cl)c2n1 [Example 67, 5-tert-Butyl-3-(2,3-dichloro-benzyl)-7-(3,3-difluoro-pyrrolidin-1-yl)-3H-[1,2,3]triazolo[4,5-d]pyrimidine]	0.2	162
CC(C)(C)c1nc(N2CCC(F)(F)C2)c2nnn(Cc3ccc(Cl)cc3Cl)c2n1 [Example 68, 5-tert-Butyl-3-(2,4-dichloro-benzyl)-7-(3,3-difluoro-pyrrolidin-1-yl)-3H-[1,2,3]triazolo[4,5-d]pyrimidine]	0.7	> 10000
CC(C)(C)c1nc(N2CCC(F)(F)C2)c2nnn(Cc3cc(Cl)ccc3Cl)c2n1 [Example 69, 5-tert-Butyl-3-(2,5-dichloro-benzyl)-7-(3,3-difluoro-pyrrolidin-1-yl)-3H-[1,2,3]triazolo[4,5-d]pyrimidine]	0.3	276
CC(C)(C)c1nc(N2CCC(F)(F)C2)c2nnn(Cc3c(Cl)cccc3Cl)c2n1 [Example 70, 5-tert-Butyl-3-(2,6-dichloro-benzyl)-7-(3,3-difluoro-pyrrolidin-1-yl)-3H-[1,2,3]triazolo[4,5-d]pyrimidine]	0.1	50.8
CC(C)(C)c1nc(N2CCC(F)(F)C2)c2nnn(Cc3ccc(F)cc3Cl)c2n1 [Example 71, 5-tert-Butyl-3-(2-chloro-4-fluoro-benzyl)-7-(3,3-difluoro-pyrrolidin-1-yl)-3H-[1,2,3]triazolo[4,5-d]pyrimidine]	0.4	> 10000
CC(C)(C)c1nc(N2CCC(F)(F)C2)c2nnn(Cc3c(F)cccc3Cl)c2n1 [Example 72, 5-tert-Butyl-3-(2-chloro-6-fluoro-benzyl)-7-(3,3-difluoro-pyrrolidin-1-yl)-3H-[1,2,3]triazolo[4,5-d]pyrimidine]	0.1	41
CC(C)(C)c1nc(N2CCC(F)(F)C2)c2nnn(Cc3ccccn3)c2n1 [Example 73, 5-tert-Butyl-7-(3,3-difluoro-pyrrolidin-1-yl)-3-pyridin-2-ylmethyl-3H-[1,2,3]triazolo[4,5-d]pyrimidine]	0.1	60.9
CC(C)(C)c1nc(N2CCC(F)(F)C2)c2nnn(Cc3cccnc3)c2n1 [Example 74, 5-tert-Butyl-7-(3,3-difluoro-pyrrolidin-1-yl)-3-pyridin-3-ylmethyl-3H-[1,2,3]triazolo[4,5-d]pyrimidine]	0.1	55.9
CC(C)(C)c1nc(N2CCC(F)(F)C2)c2nnn(Cc3ccncc3)c2n1 [Example 75, 5-tert-Butyl-7-(3,3-difluoro-pyrrolidin-1-yl)-3-pyridin-4-ylmethyl-3H-[1,2,3]triazolo[4,5-d]pyrimidine]	0.2	97.8
CC(C)(C)c1nc(N2CCC(F)(F)C2)c2nnn(CC(F)(F)F)c2n1 [Example 76, 5-tert-Butyl-7-(3,3-difluoro-pyrrolidin-1-yl)-3-(2,2,2-trifluoro-ethyl)-3H-[1,2,3]triazolo[4,5-d]pyrimidine]	2.3	> 10000
CC(C)(C)c1nc(N2CCC(F)(F)C2)c2nnn(Cc3cc(F)c(F)cc3Cl)c2n1 [Example 77, 5-tert-Butyl-3-(2-chloro-4,5-difluoro-benzyl)-7-(3,3-difluoro-pyrrolidin-1-yl)-3H-[1,2,3]triazolo[4,5-d]pyrimidine]	0.8	> 10000
CC(C)(C)c1nc(N2CCC(F)(F)C2)c2nnn(Cc3c(F)ccc(F)c3Cl)c2n1 [Example 78, 5-tert-Butyl-3-(2-chloro-3,6-difluoro-benzyl)-7-(3,3-difluoro-pyrrolidin-1-yl)-3H-[1,2,3]triazolo[4,5-d]pyrimidine]	0.1	143
CC(C)(C)c1nc(N2CCC(F)(F)C2)c2nnn(Cc3ccccc3Br)c2n1 [Example 79, 3-(2-Bromo-benzyl)-5-tert-butyl-7-(3,3-difluoro-pyrrolidin-1-yl)-3H-[1,2,3]triazolo[4,5-d]pyrimidine]	0.1	82.3
CC(C)(C)c1nc(N2CCC(F)(F)C2)c2nnn(Cc3ccccc3C(F)(F)F)c2n1 [Example 80, 5-tert-Butyl-7-(3,3-difluoro-pyrrolidin-1-yl)-3-(2-trifluoromethyl-benzyl)-3H-[1,2,3]triazolo[4,5-d]pyrimidine]	0.3	69.3
COc1ccccc1Cn1nnc2c(N3CCC(F)(F)C3)nc(C(C)(C)C)nc21 [Example 81, 5-tert-Butyl-7-(3,3-difluoro-pyrrolidin-1-yl)-3-(2-methoxy-benzyl)-3H-[1,2,3]triazolo[4,5-d]pyrimidine]	0.1	68.9
CC(C)(C)c1nc(N2CCC(F)(F)C2)c2nnn(Cc3ccccc3OC(F)(F)F)c2n1 [Example 82, 5-tert-Butyl-7-(3,3-difluoro-pyrrolidin-1-yl)-3-(2-trifluoromethoxy-benzyl)-3H-[1,2,3]triazolo[4,5-d]pyrimidine]	0.2	252
CC(C)(C)c1nc(N2CCC(F)(F)C2)c2nnn(Cc3ccccc3C#N)c2n1 [Example 83, 2-[5-tert-Butyl-7-(3,3-difluoro-pyrrolidin-1-yl)-[1,2,3]triazolo[4,5-d]pyrimidin-3-ylmethyl]-benzonitrile]	0.1	283
CC(C)(C)c1nc(N2CCC(F)(F)C2)c2nnn(CCc3ccccc3)c2n1 [Example 84, 5-tert-Butyl-7-(3,3-difluoro-pyrrolidin-1-yl)-3-phenethyl-3H-[1,2,3]triazolo[4,5-d]pyrimidine]	1.2	451
C[C@H](c1ccccc1Cl)n1nnc2c(N3CCC(F)(F)C3)nc(C(C)(C)C)nc21 [Example 86]	0.4	371
